In PubChem BioAssay AID977614 (Broad Institute, 2014):
Calls of active or inactive are those of the source.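 Rule for the calls: active = parasite count per well reduced by over 3 SD from the mean, with host cell number above 80% of untreated; inactive = the rest.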

System: L. donovani amastigotes in THP-1 macrophages, DAPI imaging, 72 h
Test: L. donovani intracellular amastigote growth inhibitors, imaging, THP-1 host macrophages, single concentration (AID 977614);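 note: signal is the parasite per host cell ratio from DAPI stained kinetoplasts and nuclei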

Which AC50 does the source give for `O=C(CN1CCOCC1)NC[C@H]1N[C@H](CO)[C@@H]1c1ccc(-c2ccccc2)cc1` here?
Its AC50 is > 10 µM (inactive).

With `C[C@@H]1CN([C@@H](C)CO)C(=O)CCCn2cc(nn2)CO[C@@H]1CN(C)C(=O)Nc1cccc(C(F)(F)F)c1` as the molecule, how does the AC50 read?
The AC50 was > 10 µM (inactive).

With `C[C@@H]1CN([C@H](C)CO)C(=O)CCCn2cc(nn2)CO[C@@H]1CN(C)S(=O)(=O)c1ccc(-n2cccn2)cc1` as the molecule, how does the AC50 read?
The AC50 was > 10 µM (inactive).

For `CC(=O)N1[C@@H](CO)[C@H](c2ccccc2)[C@@H]1CN(CC1CCC1)C(=O)CN(C)C`, which AC50 is on record?
The AC50 was > 10 µM (inactive).

With `CC(C)NC(=O)N1[C@@H](CO)[C@@H]2c3ccccc3N(C)C[C@@H]21` as the molecule, how does the AC50 read?
The AC50 was > 10 µM (inactive).

How did the AC50 turn out when `Cc1noc(C)c1NC(=O)N(C)C[C@@H]1OCc2cnnn2CCCC(=O)N([C@@H](C)CO)C[C@@H]1C` was run?
The AC50 was > 10 µM (inactive).

For `O=C(c1ccncc1)N1C[C@H]2[C@@H](c3ccccc31)[C@H](CO)N2C(=O)CN1CCOCC1`, which AC50 is on record?
Its AC50 is > 10 µM (inactive).

`C[C@@H]1CN([C@H](C)CO)C(=O)CCCn2nncc2CO[C@H]1CN(C)Cc1ccccc1C(=O)O` was tested. Which AC50 did it give?
The AC50 was > 10 µM (inactive).

For `COc1ccc(NC(=O)N2C[C@@H]3[C@H](c4ccccc42)[C@H](CO)N3Cc2ccccn2)cc1`, which AC50 is on record?
Its AC50 is > 10 µM (inactive).

With `CCN(C[C@H]1N[C@@H](CO)[C@@H]1c1ccccc1)C(=O)c1ccncc1` as the molecule, how does the AC50 read?
The AC50 was > 10 µM (inactive).

With `O=C(NC[C@@H]1[C@H](c2ccccc2)[C@H](CO)N1Cc1ccccn1)C1CCCC1` as the molecule, how does the AC50 read?
The AC50 was > 10 µM (inactive).

For `Cc1noc(C)c1S(=O)(=O)N(C)C[C@@H]1OCc2cnnn2CCCC(=O)N([C@H](C)CO)C[C@@H]1C`, which AC50 is on record?
The AC50 was > 10 µM (inactive).

Which AC50 does the source give for `C[C@H](CO)N1C[C@H](C)[C@@H](CN(C)C(=O)CCC(F)(F)F)OCc2cn(nn2)CCCC1=O` here?
Its AC50 is > 10 µM (inactive).

With `C[C@H]1CN([C@@H](C)CO)C(=O)CCCn2nncc2CO[C@@H]1CN(C)Cc1ccc(C(=O)Nc2ccccc2N)cc1` as the molecule, how does the AC50 read?
Its AC50 is > 10 µM (inactive).

For `O=C(NC[C@@H]1[C@H](c2ccccc2)[C@@H](CO)N1C(=O)C1CCC1)NC1CCCC1`, which AC50 is on record?
The AC50 was > 10 µM (inactive).

How did the AC50 turn out when `OC[C@H]1[C@@H]2c3ccccc3NC[C@@H]2N1Cc1ccccc1Cl` was run?
The AC50 was > 10 µM (inactive).

Which AC50 does the source give for `C/C=C/c1ccc([C@H]2[C@H](CO)N(S(C)(=O)=O)[C@H]2CNCC2CCC2)cc1` here?
Its AC50 is > 10 µM (inactive).

Which AC50 does the source give for `OC[C@@H]1[C@@H]2c3ccccc3NC[C@@H]2N1Cc1ccccc1Cl` here?
Its AC50 is > 10 µM (inactive).

`CN1C[C@@H]2[C@H](c3ccccc31)[C@H](CO)N2C(=O)C1CCOCC1` was tested. Which AC50 did it give?
The AC50 was > 10 µM (inactive).

How did the AC50 turn out when `C[C@@H]1CN([C@H](C)CO)C(=O)CCCn2nncc2CO[C@@H]1CN(C)Cc1cccc2c1OCCCO2` was run?
The AC50 was > 10 µM (inactive).

Which AC50 does the source give for `CN(C)CC(=O)N1C[C@@H]2[C@H](c3ccccc31)[C@H](CO)N2C(=O)c1ccccn1` here?
Its AC50 is > 10 µM (inactive).

`COCCNC[C@@H]1[C@H](c2ccccc2)[C@H](CO)N1c1nc(C)c(C)s1` was tested. Which AC50 did it give?
Its AC50 is > 10 µM (inactive).

How did the AC50 turn out when `COc1ccc(NC(=O)N(C)C[C@H]2OCc3cnnn3CCCC(=O)N([C@H](C)CO)C[C@@H]2C)c(OC)c1` was run?
The AC50 was > 10 µM (inactive).

`Cc1noc(C)c1S(=O)(=O)N(C)C[C@H]1OCc2cn(nn2)CCCC(=O)N([C@@H](C)CO)C[C@H]1C` was tested. Which AC50 did it give?
The AC50 was > 10 µM (inactive).

With `O=C(Nc1ccc(F)cc1)N1C[C@@H]2[C@H](c3ccccc31)[C@H](CO)N2C(=O)c1ccncc1` as the molecule, how does the AC50 read?
The AC50 was > 10 µM (inactive).

With `C[C@@H]1CN([C@H](C)CO)C(=O)CCCn2nncc2CO[C@@H]1CN(C)S(=O)(=O)c1ccc2c(c1)OCCCO2` as the molecule, how does the AC50 read?
Its AC50 is > 10 µM (inactive).

How did the AC50 turn out when `CC(C)CNC[C@@H]1[C@@H](c2ccccc2)[C@@H](CO)N1Cc1ccc(F)cc1` was run?
The AC50 was > 10 µM (inactive).

Which AC50 does the source give for `C[C@@H]1CN([C@H](C)CO)C(=O)CCCn2cc(nn2)CO[C@@H]1CN(C)C(=O)Nc1cccc(C(F)(F)F)c1` here?
The AC50 was > 10 µM (inactive).

`COc1ccccc1C(=O)N1C[C@H]2[C@@H](c3ccccc31)[C@@H](CO)N2C(=O)Cc1ccccc1` was tested. Which AC50 did it give?
Its AC50 is > 10 µM (inactive).

`CCCC#Cc1ccc([C@H]2[C@@H](CO)N[C@@H]2CN(C(C)=O)C2CCCC2)cc1` was tested. Which AC50 did it give?
The AC50 was > 10 µM (inactive).

How did the AC50 turn out when `C/C=C/c1ccc([C@H]2[C@H](CO)N[C@H]2CN(CC(C)C)C(=O)c2ccccn2)cc1` was run?
The AC50 was > 10 µM (inactive).

With `Cc1noc(C)c1NC(=O)N(C)C[C@@H]1OCc2cn(nn2)CCCC(=O)N([C@H](C)CO)C[C@H]1C` as the molecule, how does the AC50 read?
Its AC50 is > 10 µM (inactive).

For `O=S(=O)(c1ccccc1)N1[C@H](CO)[C@@H]2c3ccccc3NC[C@@H]21`, which AC50 is on record?
The AC50 was > 10 µM (inactive).

`C/C=C/c1ccc([C@H]2[C@@H](CO)N[C@@H]2CN(CC)C(=O)CN2CCOCC2)cc1` was tested. Which AC50 did it give?
Its AC50 is > 10 µM (inactive).

How did the AC50 turn out when `C[C@@H]1CN([C@@H](C)CO)C(=O)CCCn2nncc2CO[C@@H]1CN(C)S(=O)(=O)c1cn(C)cn1` was run?
Its AC50 is > 10 µM (inactive).

Which AC50 does the source give for `O=C(Nc1ccccc1F)N1C[C@H]2[C@@H](c3ccccc31)[C@H](CO)N2C(=O)Cc1cccnc1` here?
Its AC50 is > 10 µM (inactive).

Which AC50 does the source give for `C/C=C/c1ccc([C@H]2[C@H](CO)N(C(C)=O)[C@H]2CNC(=O)c2ccccc2)cc1` here?
Its AC50 is > 10 µM (inactive).

With `C[C@H](CO)N1C[C@H](C)[C@@H](CN(C)C(=O)Nc2cccc(C(F)(F)F)c2)OCc2cn(nn2)CCCC1=O` as the molecule, how does the AC50 read?
Its AC50 is > 10 µM (inactive).

Which AC50 does the source give for `C[C@H](CO)N1C[C@H](C)[C@H](CN(C)S(=O)(=O)c2ccc3c(c2)OCCCO3)OCc2cnnn2CCCC1=O` here?
The AC50 was > 10 µM (inactive).

How did the AC50 turn out when `CCCN1[C@H](CO)[C@H](c2ccc(C#CC(C)C)cc2)[C@@H]1CN(C)S(C)(=O)=O` was run?
Its AC50 is > 10 µM (inactive).

With `COc1ccc(CN(C)C[C@H]2OCc3cnnn3CCCC(=O)N([C@H](C)CO)C[C@H]2C)cc1` as the molecule, how does the AC50 read?
Its AC50 is > 10 µM (inactive).

For `C[C@H](CO)N1C[C@H](C)[C@@H](CN(C)CC2CCCCC2)OCc2cnnn2CCCC1=O`, which AC50 is on record?
Its AC50 is > 10 µM (inactive).

With `C/C=C/c1ccc([C@@H]2[C@@H](CNC(=O)C3CCC3)N(C(=O)NCCC)[C@H]2CO)cc1` as the molecule, how does the AC50 read?
The AC50 was > 10 µM (inactive).

`C/C=C/c1ccc([C@H]2[C@@H](CN(C)C(=O)CC3CC3)N(C(=O)C3CC3)[C@H]2CO)cc1` was tested. Which AC50 did it give?
Its AC50 is > 10 µM (inactive).

For `C[C@@H]1CN([C@H](C)CO)C(=O)CCCn2nncc2CO[C@H]1CN(C)Cc1cccc(C(F)(F)F)c1`, which AC50 is on record?
The AC50 was > 10 µM (inactive).

`Cc1noc(C)c1S(=O)(=O)N(C)C[C@H]1OCc2cn(nn2)CCCC(=O)N([C@H](C)CO)C[C@H]1C` was tested. Which AC50 did it give?
The AC50 was > 10 µM (inactive).

Which AC50 does the source give for `C[C@H]1CN([C@@H](C)CO)C(=O)CCCn2cc(nn2)CO[C@@H]1CN(C)S(=O)(=O)c1ccc(-n2cccn2)cc1` here?
Its AC50 is > 10 µM (inactive).

`O=C(Nc1ccc(F)cc1)N1[C@H](CO)[C@@H]2c3ccccc3NC[C@@H]21` was tested. Which AC50 did it give?
Its AC50 is > 10 µM (inactive).

Which AC50 does the source give for `COc1ccc(NC(=O)N(C)C[C@@H]2OCc3cnnn3CCCC(=O)N([C@@H](C)CO)C[C@H]2C)c(OC)c1` here?
The AC50 was > 10 µM (inactive).

For `CC(=O)N1[C@H](CNC(=O)C2CC2)[C@H](c2ccc(-c3ccccc3)cc2)[C@@H]1CO`, which AC50 is on record?
The AC50 was > 10 µM (inactive).

`C[C@@H]1CN([C@@H](C)CO)C(=O)CCCn2nncc2CO[C@H]1CN(C)C(=O)c1ccc2ccn(C)c2c1` was tested. Which AC50 did it give?
Its AC50 is > 10 µM (inactive).

`C[C@H]1CN([C@@H](C)CO)C(=O)CCCn2cc(nn2)CO[C@H]1CN(C)C(=O)c1ccc(N2CCN(C)CC2)cc1` was tested. Which AC50 did it give?
Its AC50 is > 10 µM (inactive).

Which AC50 does the source give for `C[C@H]1CN([C@@H](C)CO)C(=O)CCCn2cc(nn2)CO[C@@H]1CN(C)Cc1ccccc1` here?
The AC50 was > 10 µM (inactive).

Which AC50 does the source give for `O=C(Nc1ccccc1Cl)N1C[C@@H]2[C@H](c3ccccc31)[C@H](CO)N2C(=O)c1cccnc1` here?
The AC50 was > 10 µM (inactive).
